Experiment [1] deals with A549. In words: 72-h MTT cytotoxicity assay, A549. The format is cell-based. The note with it: A549 human tumour cell line. How it is done: (§1) Compounds were tested in cyclin-CDK kinase assays and cytotoxicity assays against human tumour cell lines (72-h MTT assay) as previously described.
Experiment [2] concerns Saos-2. In words: 72-h MTT cytotoxicity assay, Saos-2. In kind it is cell-based. The note with it: Saos-2 human tumour cell line. The protocol: as §1
Experiment [3] addresses Cyclin B - CDK1 (Homo sapiens, UniProt P06493). In words: Cyclin B - CDK1 kinase inhibition assay. The format is biochemical. The note with it: [ATP] = 100 μM. How it is done: as §1
Experiment [4] addresses Cyclin T - CDK9 (Homo sapiens, UniProt P50750). In words: Cyclin T - CDK9 kinase inhibition assay. The format is biochemical. The following applies: [ATP] = 100 μM. How it is done:
as §1

The target of experiment [5] is Cyclin A - CDK2 (Homo sapiens, UniProt P24941). In words: Cyclin A - CDK2 kinase inhibition assay. In kind it is biochemical. The note with it: [ATP] = 100 μM. The protocol: as §1
The target of experiment [6] is Cyclin D1 - CDK4 (Homo sapiens, UniProt P11802). In words: Cyclin D1 - CDK4 kinase inhibition assay. The format is biochemical. The following applies: [ATP] = 100 μM. The protocol:
as §1

The target in experiment [7] is Cyclin E - CDK2 (Homo sapiens, UniProt P24941). In words: Cyclin E - CDK2 kinase inhibition assay. In kind it is biochemical. The following applies: [ATP] = 100 μM. The protocol: as §1
The test system of experiment [8] is HT29. In words: 72-h MTT cytotoxicity assay, HT29. The format is cell-based. The following applies: HT-29, HT29 human tumour cell line. How it is done:
as §1

Experiment [9] addresses Cyclin H - CDK7 (Homo sapiens, UniProt P50613). In words: Cyclin H - CDK7 kinase inhibition assay. In kind it is biochemical. The following applies: [ATP] = 100 μM. The protocol:
as §1

Chain of Cyclin D1 - CDK4 (P11802 whole entry): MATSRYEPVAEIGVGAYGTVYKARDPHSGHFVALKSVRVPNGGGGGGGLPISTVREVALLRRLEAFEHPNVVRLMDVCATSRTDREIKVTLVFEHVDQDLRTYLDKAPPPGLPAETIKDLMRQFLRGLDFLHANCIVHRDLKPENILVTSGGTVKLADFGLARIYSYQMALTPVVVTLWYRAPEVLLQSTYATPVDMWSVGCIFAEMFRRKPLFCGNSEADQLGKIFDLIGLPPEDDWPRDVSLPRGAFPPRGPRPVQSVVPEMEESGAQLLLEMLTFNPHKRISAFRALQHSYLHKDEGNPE
Chain of Cyclin D1 - CDK4 (P24385 whole entry partner): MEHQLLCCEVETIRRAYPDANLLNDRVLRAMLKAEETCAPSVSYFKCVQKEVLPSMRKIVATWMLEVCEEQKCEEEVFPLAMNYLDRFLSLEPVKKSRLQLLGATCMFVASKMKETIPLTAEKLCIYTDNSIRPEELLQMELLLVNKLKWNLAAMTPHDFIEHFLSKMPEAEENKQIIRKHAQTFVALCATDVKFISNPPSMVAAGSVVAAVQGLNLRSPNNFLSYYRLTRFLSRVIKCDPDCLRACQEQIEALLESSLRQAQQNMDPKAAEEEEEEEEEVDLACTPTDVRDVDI
Chain of Cyclin T - CDK9 (P50750 whole entry): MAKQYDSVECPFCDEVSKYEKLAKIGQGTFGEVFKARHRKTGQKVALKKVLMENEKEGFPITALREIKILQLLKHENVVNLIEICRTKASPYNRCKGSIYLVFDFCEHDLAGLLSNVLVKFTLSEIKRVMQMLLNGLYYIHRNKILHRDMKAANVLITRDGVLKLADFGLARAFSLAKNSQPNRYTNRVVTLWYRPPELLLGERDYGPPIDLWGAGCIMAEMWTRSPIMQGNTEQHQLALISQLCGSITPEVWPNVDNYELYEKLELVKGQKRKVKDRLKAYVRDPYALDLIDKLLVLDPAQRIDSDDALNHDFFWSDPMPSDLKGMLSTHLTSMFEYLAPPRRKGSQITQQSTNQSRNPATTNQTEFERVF
Chain of Cyclin T - CDK9 (O60563 whole entry partner): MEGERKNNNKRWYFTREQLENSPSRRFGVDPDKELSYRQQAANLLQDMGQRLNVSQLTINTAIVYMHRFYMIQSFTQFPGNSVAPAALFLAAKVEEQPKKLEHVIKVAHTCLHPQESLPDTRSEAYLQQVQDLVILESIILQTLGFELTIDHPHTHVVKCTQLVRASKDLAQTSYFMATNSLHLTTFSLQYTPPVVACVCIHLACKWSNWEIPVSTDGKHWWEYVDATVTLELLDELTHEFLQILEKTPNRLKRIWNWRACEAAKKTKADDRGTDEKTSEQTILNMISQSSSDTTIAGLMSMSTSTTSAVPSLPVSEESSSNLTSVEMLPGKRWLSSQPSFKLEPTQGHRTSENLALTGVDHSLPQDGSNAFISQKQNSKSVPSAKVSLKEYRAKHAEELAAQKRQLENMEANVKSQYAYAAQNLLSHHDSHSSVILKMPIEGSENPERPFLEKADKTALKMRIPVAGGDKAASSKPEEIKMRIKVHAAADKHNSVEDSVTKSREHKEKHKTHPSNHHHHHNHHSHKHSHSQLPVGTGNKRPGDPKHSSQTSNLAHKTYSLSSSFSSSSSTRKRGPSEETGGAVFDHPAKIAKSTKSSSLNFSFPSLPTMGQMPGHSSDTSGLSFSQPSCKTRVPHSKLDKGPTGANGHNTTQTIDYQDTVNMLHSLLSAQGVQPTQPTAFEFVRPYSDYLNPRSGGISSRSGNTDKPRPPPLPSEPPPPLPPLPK
Chain of Cyclin H - CDK7 (P50613 whole entry): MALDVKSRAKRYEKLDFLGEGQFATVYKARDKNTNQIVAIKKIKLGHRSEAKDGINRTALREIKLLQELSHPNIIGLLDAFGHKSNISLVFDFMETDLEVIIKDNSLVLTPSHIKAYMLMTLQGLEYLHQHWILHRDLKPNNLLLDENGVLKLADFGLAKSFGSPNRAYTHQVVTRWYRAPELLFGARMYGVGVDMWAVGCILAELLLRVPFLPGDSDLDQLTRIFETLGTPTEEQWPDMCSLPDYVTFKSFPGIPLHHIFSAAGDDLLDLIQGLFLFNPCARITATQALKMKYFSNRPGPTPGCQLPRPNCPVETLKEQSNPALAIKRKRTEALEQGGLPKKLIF
Chain of Cyclin H - CDK7 (P51946 whole entry partner): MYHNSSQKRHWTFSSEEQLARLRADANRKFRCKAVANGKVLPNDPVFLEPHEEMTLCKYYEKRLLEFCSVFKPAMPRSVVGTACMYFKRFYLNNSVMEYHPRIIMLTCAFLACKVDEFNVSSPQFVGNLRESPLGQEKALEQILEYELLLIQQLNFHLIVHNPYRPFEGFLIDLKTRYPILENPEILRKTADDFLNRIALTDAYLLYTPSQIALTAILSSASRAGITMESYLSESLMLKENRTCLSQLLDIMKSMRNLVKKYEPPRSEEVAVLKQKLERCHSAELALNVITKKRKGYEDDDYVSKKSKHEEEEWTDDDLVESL
Chain of Cyclin B - CDK1 (P06493 whole entry): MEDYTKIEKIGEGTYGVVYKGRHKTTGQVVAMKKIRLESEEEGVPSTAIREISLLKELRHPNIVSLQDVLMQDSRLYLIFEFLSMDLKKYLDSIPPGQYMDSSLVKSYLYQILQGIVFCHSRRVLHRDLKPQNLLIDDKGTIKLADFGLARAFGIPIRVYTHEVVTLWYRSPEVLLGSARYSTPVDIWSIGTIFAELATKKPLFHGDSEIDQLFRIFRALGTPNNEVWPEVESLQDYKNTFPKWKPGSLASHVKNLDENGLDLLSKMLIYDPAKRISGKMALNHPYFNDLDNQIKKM
Chain of Cyclin B - CDK1 (P14635 whole entry partner): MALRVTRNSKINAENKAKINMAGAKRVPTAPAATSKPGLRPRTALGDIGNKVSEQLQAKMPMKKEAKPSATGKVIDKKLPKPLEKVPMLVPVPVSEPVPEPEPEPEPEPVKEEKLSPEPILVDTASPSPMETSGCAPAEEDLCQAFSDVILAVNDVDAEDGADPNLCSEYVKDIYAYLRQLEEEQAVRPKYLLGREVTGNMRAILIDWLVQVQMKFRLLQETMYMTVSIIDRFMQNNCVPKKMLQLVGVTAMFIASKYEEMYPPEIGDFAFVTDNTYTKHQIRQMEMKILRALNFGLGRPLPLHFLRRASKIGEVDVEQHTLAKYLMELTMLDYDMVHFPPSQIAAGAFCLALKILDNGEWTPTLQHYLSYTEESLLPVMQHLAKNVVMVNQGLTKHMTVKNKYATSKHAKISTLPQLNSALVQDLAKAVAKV

In the case of `Cc1nc2ccc3cnc(N(C)c4cccc([N+](=O)[O-])c4)nc3c2s1` [Cpd 10, Methyl-(2-methyl-thiazolo[4,5-h]quinazolin-8-yl)-(3-nitro-phenyl)-amine], the IC50 in experiment [1] was above 40000 nM; in [2], above 40000 nM; in [3], 22000 ± 8000 nM; in experiment [4], above 100000 nM; in [5], 47000 ± 20000 nM; in experiment [6], above 40000 nM. The IC50 in experiment [7] was 3200 ± 800 nM; in experiment [8], above 40000 nM; in [9], 44000 ± 11000 nM.

For `Cc1nc2c(s1)-c1nc(Nc3ccccc3)ncc1CC2` [Cpd 11, (2-Methyl-4,5-dihydro-thiazolo[4,5-h]quinazolin-8-yl)-phenyl-amine], the half-maximal inhibitory concentration (IC50) in experiment [3] is 2200 ± 700 nM; in experiment [5], 1700 nM; in [6], 1680 ± 40 nM; in [7], 1 ± 1 nM; in experiment [9], above 20000 nM.

Turning to `Cc1nc2ccc3cnc(Nc4ccccc4)nc3c2s1` [Cpd 12, (2-Methyl-thiazolo[4,5-h]quinazolin-8-yl)-phenyl-amine], the IC50 in experiment [3] is 5200 ± 1300 nM; in experiment [5] it was 4300 ± 2500 nM; in [6], 5000 ± 4000 nM; in experiment [7] it was 48 ± 13 nM; in [9] it was above 20000 nM.

In the case of `Cc1nc2c(s1)-c1nc(Nc3ccc(O)cc3)ncc1CC2` [Cpd 5, 4-(2-Methyl-4,5-dihydro-thiazolo[4,5-h]quinazolin-8-ylamino)-phenol], the IC50 was 4200 ± 1200 nM in [1]; 6600 ± 5800 nM in experiment [2]; 600 ± 120 nM in experiment [3]; 1600 ± 800 nM in [4]; 9 ± 3 nM in experiment [5]; 1000 nM in experiment [6]. The figures for the IC50 in experiment [7], in experiment [8] and in experiment [9] were 2 ± 1 nM, 9900 ± 1200 nM and 640 ± 230 nM, respectively.

Regarding `Cc1nc2c(s1)-c1nc(Nc3ccc(N4CCOCC4)cc3)ncc1CC2` [Cpd 4, (2-Methyl-4,5-dihydro-thiazolo[4,5-h]quinazolin-8-yl)-(4-morpholin-4-yl-phenyl)-amine], the IC50 in [1] is 3500 ± 1400 nM; in experiment [2] it was 5000 ± 800 nM; in experiment [3], 45000 ± 25000 nM; in [4], 520 ± 60 nM; in experiment [5] it was 910 ± 590 nM; in experiment [6], above 100000 nM. The values for the IC50 in experiment [7], in experiment [8] and in experiment [9] were 400 ± 100 nM, 2100 ± 2000 nM and 2200 ± 500 nM, respectively.

For the compound `Cc1nc2c(s1)-c1nc(Nc3cccc(O)c3)ncc1CC2` [Cpd 3, 3-(2-Methyl-4,5-dihydro-thiazolo[4,5-h]quinazolin-8-ylamino)-phenol], the IC50 in experiment [1] stood at 2500 ± 1200 nM; in experiment [2] it was 2300 ± 1800 nM; in experiment [3], 1100 ± 400 nM; in [4], 13 nM; in experiment [5] it was 2 ± 1 nM; in experiment [6], 1100 ± 700 nM. Also, the IC50 in [7] worked out at 20 ± 10 nM; in experiment [8], 9400 ± 5600 nM; in experiment [9] it was 110 ± 30 nM.

As for `Cc1nc2c(s1)-c1nc(N(C)c3cccc([N+](=O)[O-])c3)ncc1CC2` [Cpd 9, Methyl-(2-methyl-4,5-dihydro-thiazolo[4,5-h]quinazolin-8-yl)-(3-nitro-phenyl)-amine], the IC50 in experiment [1] is above 20000 nM; in [2] it was above 20000 nM; in [3], 8000 ± 2000 nM; in [4] it was 39000 ± 19000 nM; in [5], 14000 ± 6000 nM; in experiment [6], above 80000 nM. Further, the IC50 in experiment [7] was 1180 ± 30 nM; in experiment [8], above 20000 nM; in experiment [9], 3900 ± 1400 nM.

In the case of `Nc1nc2c(s1)-c1nc(Nc3cccc([N+](=O)[O-])c3)ncc1CC2` [Cpd 14, N^8-(3-Nitro-phenyl)-4,5-dihydro-thiazolo[4,5-h]quinazoline-2,8-diamine], the IC50 was determined as 54 ± 16 nM in experiment [3], 22 ± 10 nM in experiment [5], 250 ± 120 nM in experiment [6] and 1 ± 1 nM in experiment [7].

`Cc1nc2c(s1)-c1nc(Nc3ccc(N(C)C)cc3)ncc1CC2` [Cpd 6, N,N-Dimethyl-N′-(2-methyl-4,5-dihydro-thiazolo[4,5-h]quinazolin-8-yl)-benzene-1,4-diamine]: the IC50 in [1] was 8000 ± 4000 nM; in [2], 5300 ± 1900 nM; in experiment [3], 7500 ± 6300 nM; in [4], 2100 ± 700 nM; in experiment [5], 58 ± 7 nM; in [6], 70 ± 20 nM. The IC50 in experiment [7] is 21 ± 1 nM; in [8], 3600 ± 1000 nM; in experiment [9], 130 ± 30 nM.

Consider `Cc1nc2c(s1)-c1nc(Nc3ccc(Cl)nc3)ncc1CC2` [Cpd 7, (6-Chloro-pyridin-3-yl)-(2-methyl-4,5-dihydro-thiazolo[4,5-h]quinazolin-8-yl)-amine], for which the IC50 in [1] worked out at 3300 ± 300 nM; in experiment [2], 4900 ± 3400 nM; in experiment [3] it was 58 ± 46 nM; in [4] it was 4100 ± 1700 nM; in experiment [5], 14 ± 6 nM; in experiment [6] it was 75 nM. In addition, the IC50 in experiment [7] came out at 49 ± 2 nM; in experiment [8], 4000 ± 100 nM; in experiment [9] it was 2800 ± 600 nM.

For `Cc1nc2c(s1)-c1nc(Nc3cccc([N+](=O)[O-])c3)ncc1CC2` [Cpd 1, (2-Methyl-4,5-dihydro-thiazolo[4,5-h]quinazolin-8-yl)-(3-nitro-phenyl)-amine], the IC50 in [1] amounted to 680 nM; in experiment [2], 1200 ± 700 nM; in experiment [3] it was 1000 ± 200 nM; in experiment [4], 8 nM; in [5], 560 ± 40 nM; in experiment [6], 3800 ± 600 nM. Also, the IC50 in experiment [7] is 50 ± 40 nM; in experiment [8], 1400 ± 300 nM; in [9] it was 1700 ± 500 nM.

As to `Nc1nc2c(s1)-c1nc(Nc3ccccc3)ncc1CC2` [Cpd 13, N^8-Phenyl-4,5-dihydro-thiazolo[4,5-h]quinazoline-2,8-diamine], the IC50 came to 1900 ± 700 nM in experiment [3]; 360 ± 140 nM in experiment [4]; 920 ± 470 nM in [5]; 610 ± 90 nM in experiment [6]; 0.7 nM in [7]; 2500 ± 1000 nM in experiment [9].

For the compound `Cc1nc2c(s1)-c1nc(Nc3ccc(C(F)(F)F)cc3)ncc1CC2` [Cpd 2, (2-Methyl-4,5-dihydro-thiazolo[4,5-h]quinazolin-8-yl)-(4-trifluoromethyl-phenyl)-amine], the IC50 was 2800 ± 1000 nM in experiment [1]; 4400 ± 1800 nM in experiment [2]; 2800 ± 700 nM in experiment [3]; 6100 nM in experiment [4]; 4200 ± 900 nM in [5]; 9200 ± 1300 nM in experiment [6]. For the same compound, the IC50 in experiment [7] was 400 ± 100 nM; in [8], 7100 ± 1300 nM; in [9], above 100000 nM.

As to `COc1ccc(Nc2ncc3c(n2)-c2sc(C)nc2CC3)cn1` [Cpd 8, (6-Methoxy-pyridin-3-yl)-(2-methyl-4,5-dihydro-thiazolo[4,5-h]quinazolin-8-yl)-amine], the IC50 in [1] worked out at 6000 ± 5100 nM; in experiment [2], 5000 ± 2700 nM; in [3], 230 ± 190 nM; in [4], 3300 ± 1600 nM; in experiment [5], 14 ± 12 nM; in experiment [6], 220 ± 190 nM. The IC50 was 89 ± 16 nM in experiment [7], 4700 ± 3800 nM in [8] and 2300 ± 400 nM in [9].

(Values after US7576091B2, “Thiazolo-, oxazalo and imidazolo-quinazoline compounds capable of inhibiting protein kinases” (Cyclacel Limited, priority 2003, dated 2009).)
